Results taken from patent US20070128217A1 (priority 2003, published 2007).

What was measured:
[1] = test system: antibodies in sera from SARS patients (sera 1a, 1b, 2, 6, 37, 62, London, SARS-yellow, SARS-green); type: binding, human; set-up: Binding of serum 6 to linear peptides of protein X1 of SARS-CoV Urbani / Binding of serum 37 to linear peptides of protein X1 of SARS-CoV Urbani / Binding of serum 6 to looped/cyclic peptide (PEPSCAN-ELISA) / Binding of serum 37 to looped/cyclic peptide (PEPSCAN-ELISA) / Binding of serum 37 to looped/cyclic peptides of protein X1 of SARS-CoV Urbani / Binding of serum 6 to linear peptides of protein X2 / Binding of serum 37 to linear peptides of protein X2 / Binding of serum 37 to looped/cyclic peptides of protein X2 of SARS-CoV Urbani / Binding of serum 6 to linear peptides of protein M of SARS-CoV Urbani / Binding of serum 37 to linear peptides of protein M of SARS-CoV Urbani / Binding of serum 6 to looped/cyclic peptides of protein M of SARS-CoV Urbani / Binding of serum 37 to looped/cyclic peptides of protein M of SARS-CoV Urbani / Binding of serum 6 to linear peptides of protein X3 of SARS-CoV Urbani / Binding of serum 37 to linear peptides of protein X3 of SARS-CoV Urbani / Binding of serum 37 to looped/cyclic peptides of protein X3 of SARS-CoV Urbani / Binding of serum 6 to linear peptides of protein X4 of SARS-CoV Urbani / Binding of serum 37 to linear peptides of protein X4 of SARS-CoV Urbani / Binding of serum 37 to looped/cyclic peptides of protein X4 of SARS-CoV Urbani / Binding of serum 6 to linear peptides of protein X5 of SARS-CoV Urbani / Binding of serum 37 to linear peptides of protein X5 of SARS-CoV Urbani / Binding of serum 37 to looped/cyclic peptides of protein X5 of SARS-CoV Urbani / Binding of serum 6 to linear peptides of protein N of SARS-CoV Urbani / Binding of serum 37 to linear peptides of protein N of SARS-CoV Urbani / Binding of serum 6 to linear peptide (PEPSCAN-ELISA) / Binding of serum 1a to looped/cyclic peptides of protein N of SARS-CoV Urbani / Binding of serum 1b to looped/cyclic peptides of protein N of SARS-CoV Urbani / Binding of serum 2 to looped/cyclic peptides of protein N of SARS-CoV Urbani / Binding of serum 6 to looped/cyclic peptides of protein N of SARS-CoV Urbani / Binding of serum 37 to looped/cyclic peptides of protein N of SARS-CoV Urbani / Binding of serum 62 to looped/cyclic peptides of protein N of SARS-CoV Urbani / Binding of serum London to looped/cyclic peptides of protein N of SARS-CoV Urbani / Binding of serum SARS-green to looped/cyclic peptides of protein N of SARS-CoV Urbani: unit not given here
[2] = test system: control sera (pooled serum of ten healthy LUMC hospital workers; commercial negative donor pooled serum from the Dutch bloodbank); type: binding, human; set-up: Binding of Control serum LUMC to linear peptides / Binding of Control serum Blood-bank to linear peptides / Binding of Control serum LUMC to looped peptides / Binding of Control Serum Blood-Bank to Looped peptides / Binding of Control serum LUMC to linear peptides of the protein M of SARS-CoV Urbani / Binding of Control serum Blood-bank to linear peptides of the protein M of SARS-CoV Urbani / Binding of Control serum LUMC to looped peptides of the protein M of SARS-CoV Urbani / Binding of Control Serum Blood-Bank to Looped peptides of the protein M of SARS-CoV Urbani: unit not given here
[3] = test system: rabbit serum obtained by immunizing a rabbit with the SARS-CoV strain Frankfurt 1; type: binding; set-up: Binding of a rabbit serum to linear peptides / Binding of a rabbit serum to looped peptides / Rabbit serum linear peptides / Rabbit serum looped peptides / Binding of a rabbit serum to linear peptides of protein N of SARS-CoV Urbani (Rabbit serum linear peptides) / Binding of a rabbit serum to looped/cyclic peptides of protein N of SARS-CoV Urbani (Rabbit serum looped peptides): unit not given here

## WNLVIGFLFLAWIML
[1]
  Binding of serum 1a to linear peptides of protein M of SARS-CoV Urbani: 0.7
  Binding of serum 1a to looped/cyclic peptides of protein M of SARS-CoV Urbani: 0.6
  Binding of serum 1b to linear peptides of protein M of SARS-CoV Urbani: 0.6
  Binding of serum 1b to looped/cyclic peptides of protein M of SARS-CoV Urbani: 0.5
  Binding of serum 2 to linear peptides of protein M of SARS-CoV Urbani: 0.4
  Binding of serum 2 to looped/cyclic peptides of protein M of SARS-CoV Urbani: 0.6
  Binding of serum 6 to linear peptides of protein M of SARS-CoV Urbani: 0.3
  Binding of serum 6 to looped/cyclic peptides of protein M of SARS-CoV Urbani: 0.4
  Binding of serum 37 to linear peptides of protein M of SARS-CoV Urbani: 0.4
  Binding of serum 37 to looped/cyclic peptides of protein M of SARS-CoV Urbani: 0.6
  Binding of serum 62 to linear peptides of protein M of SARS-CoV Urbani: 0.4
  Binding of serum 62 to looped/cyclic peptides of protein M of SARS-CoV Urbani: 0.6
  Binding of serum London to linear peptides of protein M of SARS-CoV Urbani: 0.3
  Binding of serum London to looped/cyclic peptides of protein M of SARS-CoV Urbani: 0.2
  Binding of serum SARS-green to linear peptides of protein M of SARS-CoV Urbani: 0.4
  Binding of serum SARS-green to looped/cyclic peptides of protein M of SARS-CoV Urbani: 0.3
  Binding of serum SARS-yellow to linear peptides of protein M of SARS-CoV Urbani: 0.2
  Binding of serum SARS-yellow to looped/cyclic peptides of protein M of SARS-CoV Urbani: 0.7
[2]
  Binding of Control Serum Blood-Bank to Looped peptides of the protein M of SARS-CoV Urbani: 0.5
  Binding of Control serum Blood-bank to linear peptides of the protein M of SARS-CoV Urbani: 0.6
  Binding of Control serum LUMC to linear peptides of the protein M of SARS-CoV Urbani: 0.6
  Binding of Control serum LUMC to looped peptides of the protein M of SARS-CoV Urbani: 0.7
[3]
  Rabbit serum linear peptides: 0.2
  Rabbit serum looped peptides: 0.3

## LQELLIQQWIQFMMS
[1]
  Binding of serum 1a to linear peptides of protein X2: 0.7
  Binding of serum 1a to looped/cyclic peptides of protein X2 of SARS-CoV Urbani: 0.6
  Binding of serum 1b to linear peptides of protein X2: 0.6
  Binding of serum 1b to looped/cyclic peptides of protein X2 of SARS-CoV Urbani: 0.5
  Binding of serum 2 to linear peptides of protein X2: 0.3
  Binding of serum 2 to looped/cyclic peptides of protein X2 of SARS-CoV Urbani: 0.3
  Binding of serum 6 to linear peptides of protein X2: 0.3
  Binding of serum 6 to looped/cyclic peptides of protein X2 of SARS-CoV Urbani: 0.2
  Binding of serum 37 to linear peptides of protein X2: 0.5
  Binding of serum 37 to looped/cyclic peptides of protein X2 of SARS-CoV Urbani: 0.4
  Binding of serum 62 to linear peptides of protein X2: 0.5
  Binding of serum 62 to looped/cyclic peptides of protein X2 of SARS-CoV Urbani: 0.6
  Binding of serum London to linear peptides of protein X2: 0.4
  Binding of serum London to looped/cyclic peptides of protein X2 of SARS-CoV Urbani: 0.2
  Binding of serum SARS-green to linear peptides of protein X2: 0.5
  Binding of serum SARS-green to looped/cyclic peptides of protein X2 of SARS-CoV Urbani: 0.2
  Binding of serum SARS-yellow to linear peptides of protein X2: 0.6
  Binding of serum SARS-yellow to looped/cyclic peptides of protein X2 of SARS-CoV Urbani: 0.3
[2]
  Binding of Control Serum Blood-Bank to Looped peptides: 0.6
  Binding of Control serum Blood-bank to linear peptides: 0.5
  Binding of Control serum LUMC to linear peptides: 0.3
  Binding of Control serum LUMC to looped peptides: 0.6
[3]
  Binding of a rabbit serum to linear peptides: 0.3
  Binding of a rabbit serum to looped peptides: 0.3

## YSNRNRFLYIIKLVF
[1]
  Binding of serum 1a to linear peptides of protein M of SARS-CoV Urbani: 0.7
  Binding of serum 1b to linear peptides of protein M of SARS-CoV Urbani: 0.5
  Binding of serum 2 to linear peptides of protein M of SARS-CoV Urbani: 0.6
  Binding of serum 6 to linear peptides of protein M of SARS-CoV Urbani: 0.3
  Binding of serum 37 to linear peptides of protein M of SARS-CoV Urbani: 0.7
  Binding of serum 62 to linear peptides of protein M of SARS-CoV Urbani: 0.7
  Binding of serum London to linear peptides of protein M of SARS-CoV Urbani: 0.3
  Binding of serum SARS-green to linear peptides of protein M of SARS-CoV Urbani: 0.3
  Binding of serum SARS-yellow to linear peptides of protein M of SARS-CoV Urbani: 0.1
  Recognition of the peptide by sera of SARS-CoV infected individuals, and form (linear, looped/cyclic) in which it is recognized: recognized in looped/cyclic form
[2]
  Binding of Control Serum Blood-Bank to Looped peptides of the protein M of SARS-CoV Urbani: 0.6
  Binding of Control serum Blood-bank to linear peptides of the protein M of SARS-CoV Urbani: 0.7
  Binding of Control serum LUMC to linear peptides of the protein M of SARS-CoV Urbani: 0.4
  Binding of Control serum LUMC to looped peptides of the protein M of SARS-CoV Urbani: 0.9
[3]
  Rabbit serum linear peptides: 0.4
  Rabbit serum looped peptides: 0.5

## WIMLLQFAYSNRNRF
[1]
  Binding of serum 1a to linear peptides of protein M of SARS-CoV Urbani: 0.6
  Binding of serum 1a to looped/cyclic peptides of protein M of SARS-CoV Urbani: 0.7
  Binding of serum 1b to linear peptides of protein M of SARS-CoV Urbani: 0.5
  Binding of serum 1b to looped/cyclic peptides of protein M of SARS-CoV Urbani: 0.6
  Binding of serum 2 to linear peptides of protein M of SARS-CoV Urbani: 0.5
  Binding of serum 2 to looped/cyclic peptides of protein M of SARS-CoV Urbani: 0.4
  Binding of serum 6 to linear peptides of protein M of SARS-CoV Urbani: 0.3
  Binding of serum 6 to looped/cyclic peptides of protein M of SARS-CoV Urbani: 0.8
  Binding of serum 37 to linear peptides of protein M of SARS-CoV Urbani: 0.7
  Binding of serum 37 to looped/cyclic peptides of protein M of SARS-CoV Urbani: 0.4
  Binding of serum 62 to linear peptides of protein M of SARS-CoV Urbani: 0.7
  Binding of serum 62 to looped/cyclic peptides of protein M of SARS-CoV Urbani: 0.6
  Binding of serum London to linear peptides of protein M of SARS-CoV Urbani: 0.3
  Binding of serum London to looped/cyclic peptides of protein M of SARS-CoV Urbani: 0.2
  Binding of serum SARS-green to linear peptides of protein M of SARS-CoV Urbani: 0.3
  Binding of serum SARS-green to looped/cyclic peptides of protein M of SARS-CoV Urbani: 0.2
  Binding of serum SARS-yellow to linear peptides of protein M of SARS-CoV Urbani: 0.1
  Binding of serum SARS-yellow to looped/cyclic peptides of protein M of SARS-CoV Urbani: 0.3
[2]
  Binding of Control Serum Blood-Bank to Looped peptides of the protein M of SARS-CoV Urbani: 0.7
  Binding of Control serum Blood-bank to linear peptides of the protein M of SARS-CoV Urbani: 0.7
  Binding of Control serum LUMC to linear peptides of the protein M of SARS-CoV Urbani: 0.3
  Binding of Control serum LUMC to looped peptides of the protein M of SARS-CoV Urbani: 0.7
[3]
  Rabbit serum linear peptides: 0.8
  Rabbit serum looped peptides: 0.3

## SLSLHKLLQTLVLKM
[1]
  Binding of serum 1a to linear peptides of protein X2: 0.6
  Binding of serum 1a to looped/cyclic peptides of protein X2 of SARS-CoV Urbani: 0.5
  Binding of serum 1b to linear peptides of protein X2: 0.5
  Binding of serum 1b to looped/cyclic peptides of protein X2 of SARS-CoV Urbani: 0.5
  Binding of serum 2 to linear peptides of protein X2: 0.3
  Binding of serum 2 to looped/cyclic peptides of protein X2 of SARS-CoV Urbani: 0.3
  Binding of serum 6 to linear peptides of protein X2: 0.5
  Binding of serum 6 to looped/cyclic peptides of protein X2 of SARS-CoV Urbani: 0.9
  Binding of serum 37 to linear peptides of protein X2: 0.4
  Binding of serum 37 to looped/cyclic peptides of protein X2 of SARS-CoV Urbani: 0.4
  Binding of serum 62 to linear peptides of protein X2: 0.5
  Binding of serum 62 to looped/cyclic peptides of protein X2 of SARS-CoV Urbani: 0.5
  Binding of serum London to linear peptides of protein X2: 0.4
  Binding of serum London to looped/cyclic peptides of protein X2 of SARS-CoV Urbani: 1.2
  Binding of serum SARS-green to linear peptides of protein X2: 0.6
  Binding of serum SARS-green to looped/cyclic peptides of protein X2 of SARS-CoV Urbani: 0.3
  Binding of serum SARS-yellow to linear peptides of protein X2: 0.3
  Binding of serum SARS-yellow to looped/cyclic peptides of protein X2 of SARS-CoV Urbani: 0.7
[2]
  Binding of Control Serum Blood-Bank to Looped peptides: 0.6
  Binding of Control serum Blood-bank to linear peptides: 0.4
  Binding of Control serum LUMC to linear peptides: 0.3
  Binding of Control serum LUMC to looped peptides: 0.7
[3]
  Binding of a rabbit serum to linear peptides: 0.1
  Binding of a rabbit serum to looped peptides: 0.4
